The target in this assay is C-X-C chemokine receptor type 4 (Homo sapiens, UniProt P61073). In words: Antagonist activity at CXCR4. It counts as functional.
Sequence of C-X-C chemokine receptor type 4 (P61073 whole entry): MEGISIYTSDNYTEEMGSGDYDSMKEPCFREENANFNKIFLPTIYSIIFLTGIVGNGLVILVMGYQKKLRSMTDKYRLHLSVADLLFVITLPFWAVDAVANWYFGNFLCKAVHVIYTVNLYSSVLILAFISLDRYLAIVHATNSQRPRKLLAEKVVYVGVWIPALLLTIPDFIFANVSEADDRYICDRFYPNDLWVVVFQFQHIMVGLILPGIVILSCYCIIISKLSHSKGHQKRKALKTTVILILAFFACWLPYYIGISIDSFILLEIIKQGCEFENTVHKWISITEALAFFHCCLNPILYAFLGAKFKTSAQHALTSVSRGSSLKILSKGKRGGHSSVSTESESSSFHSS

In the case of `NC(N)=NCCC[C@@H]1NC(=O)[C@H](CCCN=C(N)N)NC(=O)[C@@H](Cc2ccccc2)NC(=O)CNC(=O)[C@H](Cc2ccc3ccccc3c2)NC1=O`, the IC50 was determined as 51 nM.

(Values after ChEMBL document CHEMBL1955859, “Molecular modeling study of cyclic pentapeptide CXCR4 antagonists: new insight into CXCR4-FC131 interactions” (Bioorg Med Chem Lett, 2012).)
